{"source": "patent US20240246942A1", "about": "“KINASE INHIBITORS FOR THE TREATMENT OF NEURODEGENERATIVE DISEASES” (priority 2020, published 2024)", "assay_in_all_cases": "biochemical", "key": {"[1]": {"molecular_target": "T1, panel of 374 wild-type kinases (Homo sapiens, UniProt P45983)", "T1 construct": "purchased Reaction Biology Corporation", "T1 sequence (P45983 whole entry)": "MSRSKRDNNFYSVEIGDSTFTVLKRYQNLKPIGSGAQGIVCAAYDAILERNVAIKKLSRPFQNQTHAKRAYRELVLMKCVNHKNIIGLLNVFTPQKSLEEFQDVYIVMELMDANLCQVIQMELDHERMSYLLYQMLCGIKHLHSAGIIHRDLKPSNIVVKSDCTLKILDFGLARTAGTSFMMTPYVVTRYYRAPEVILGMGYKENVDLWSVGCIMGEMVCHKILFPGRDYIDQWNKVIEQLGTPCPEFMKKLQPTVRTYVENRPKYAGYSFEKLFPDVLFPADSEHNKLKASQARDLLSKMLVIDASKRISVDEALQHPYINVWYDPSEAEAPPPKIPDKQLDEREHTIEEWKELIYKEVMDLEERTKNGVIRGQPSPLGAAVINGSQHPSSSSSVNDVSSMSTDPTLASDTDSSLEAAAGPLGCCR", "conditions": "JNK1, read-out: % Enzyme Activity (relative to DMSO controls)"}, "[2]": {"molecular_target": "T2, panel of 374 wild-type kinases (Homo sapiens, UniProt P16234)", "T2 construct": "purchased Reaction Biology Corporation", "T2 sequence (P16234 24-1089)": "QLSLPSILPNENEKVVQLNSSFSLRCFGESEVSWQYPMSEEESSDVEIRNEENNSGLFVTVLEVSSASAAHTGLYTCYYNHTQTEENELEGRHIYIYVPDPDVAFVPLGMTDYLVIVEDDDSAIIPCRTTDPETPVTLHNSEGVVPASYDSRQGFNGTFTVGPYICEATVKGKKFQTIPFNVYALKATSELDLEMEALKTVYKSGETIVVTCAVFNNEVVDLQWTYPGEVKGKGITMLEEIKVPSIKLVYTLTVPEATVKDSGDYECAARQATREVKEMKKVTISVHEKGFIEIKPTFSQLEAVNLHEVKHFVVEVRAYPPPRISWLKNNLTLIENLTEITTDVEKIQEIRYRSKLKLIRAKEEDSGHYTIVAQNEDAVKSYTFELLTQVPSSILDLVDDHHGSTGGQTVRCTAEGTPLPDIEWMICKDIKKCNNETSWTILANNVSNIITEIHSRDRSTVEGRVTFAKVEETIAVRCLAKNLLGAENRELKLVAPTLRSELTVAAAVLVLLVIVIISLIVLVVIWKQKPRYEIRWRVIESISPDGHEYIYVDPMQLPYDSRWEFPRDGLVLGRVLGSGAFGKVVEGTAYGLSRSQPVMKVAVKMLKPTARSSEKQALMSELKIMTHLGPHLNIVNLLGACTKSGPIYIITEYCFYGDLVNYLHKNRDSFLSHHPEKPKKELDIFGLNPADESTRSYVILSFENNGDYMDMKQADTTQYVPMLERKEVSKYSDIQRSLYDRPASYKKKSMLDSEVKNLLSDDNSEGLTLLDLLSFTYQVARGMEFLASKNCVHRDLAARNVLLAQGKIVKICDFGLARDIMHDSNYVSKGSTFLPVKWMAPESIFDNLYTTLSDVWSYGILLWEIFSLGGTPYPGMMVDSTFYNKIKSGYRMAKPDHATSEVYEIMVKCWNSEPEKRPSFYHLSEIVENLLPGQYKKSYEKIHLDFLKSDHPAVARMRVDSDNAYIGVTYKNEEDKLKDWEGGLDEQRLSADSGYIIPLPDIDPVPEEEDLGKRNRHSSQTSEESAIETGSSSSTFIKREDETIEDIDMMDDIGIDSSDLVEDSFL", "conditions": "read-out: % Enzyme Activity (relative to DMSO controls), kinase PDGFRa"}, "[3]": {"molecular_target": "T3, panel of 374 wild-type kinases (Homo sapiens, UniProt Q16584)", "T3 construct": "purchased Reaction Biology Corporation", "T3 sequence (Q16584 whole entry)": "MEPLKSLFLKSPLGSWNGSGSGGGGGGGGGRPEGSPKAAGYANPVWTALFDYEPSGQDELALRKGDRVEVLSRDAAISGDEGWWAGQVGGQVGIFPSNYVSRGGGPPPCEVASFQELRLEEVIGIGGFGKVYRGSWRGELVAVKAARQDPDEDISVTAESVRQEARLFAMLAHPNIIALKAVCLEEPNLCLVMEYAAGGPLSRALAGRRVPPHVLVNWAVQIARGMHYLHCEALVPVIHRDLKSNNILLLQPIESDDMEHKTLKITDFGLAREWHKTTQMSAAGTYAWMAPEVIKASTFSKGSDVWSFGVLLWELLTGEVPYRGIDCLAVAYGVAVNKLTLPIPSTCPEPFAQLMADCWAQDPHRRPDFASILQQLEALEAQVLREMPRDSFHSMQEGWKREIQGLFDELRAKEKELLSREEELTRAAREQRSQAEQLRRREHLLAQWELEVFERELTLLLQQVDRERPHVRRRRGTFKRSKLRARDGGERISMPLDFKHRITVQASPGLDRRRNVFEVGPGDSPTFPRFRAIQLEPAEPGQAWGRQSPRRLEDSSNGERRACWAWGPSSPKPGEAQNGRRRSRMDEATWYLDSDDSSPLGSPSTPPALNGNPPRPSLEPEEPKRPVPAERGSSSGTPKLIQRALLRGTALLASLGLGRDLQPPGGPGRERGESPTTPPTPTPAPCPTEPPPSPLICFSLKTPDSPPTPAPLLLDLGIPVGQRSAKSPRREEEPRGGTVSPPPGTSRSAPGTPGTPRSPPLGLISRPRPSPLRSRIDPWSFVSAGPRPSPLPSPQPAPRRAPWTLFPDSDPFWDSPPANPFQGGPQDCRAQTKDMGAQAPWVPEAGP", "conditions": "read-out: % Enzyme Activity (relative to DMSO controls), MLK3/MAP3K11"}, "[4]": {"molecular_target": "T4, panel of 374 wild-type kinases (Homo sapiens, UniProt P36897)", "T4 construct": "purchased Reaction Biology Corporation", "T4 sequence (P36897 34-503)": "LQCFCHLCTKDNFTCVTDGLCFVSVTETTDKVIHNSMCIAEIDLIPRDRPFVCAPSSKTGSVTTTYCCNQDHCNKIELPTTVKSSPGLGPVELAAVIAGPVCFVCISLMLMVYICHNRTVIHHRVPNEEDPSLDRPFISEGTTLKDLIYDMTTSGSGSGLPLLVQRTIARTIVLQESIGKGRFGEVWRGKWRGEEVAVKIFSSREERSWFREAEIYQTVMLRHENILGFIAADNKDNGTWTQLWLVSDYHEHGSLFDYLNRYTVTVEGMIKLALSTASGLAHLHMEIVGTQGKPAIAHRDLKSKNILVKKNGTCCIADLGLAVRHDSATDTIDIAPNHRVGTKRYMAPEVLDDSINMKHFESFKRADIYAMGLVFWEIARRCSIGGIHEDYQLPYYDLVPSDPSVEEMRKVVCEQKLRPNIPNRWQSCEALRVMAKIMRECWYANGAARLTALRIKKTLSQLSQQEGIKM", "conditions": "read-out: % Enzyme Activity (relative to DMSO controls), ALK5/TGFBR1"}, "[5]": {"molecular_target": "T5, panel of 374 wild-type kinases (Homo sapiens, UniProt Q99759)", "T5 construct": "purchased Reaction Biology Corporation", "T5 sequence (Q99759 1-626)": "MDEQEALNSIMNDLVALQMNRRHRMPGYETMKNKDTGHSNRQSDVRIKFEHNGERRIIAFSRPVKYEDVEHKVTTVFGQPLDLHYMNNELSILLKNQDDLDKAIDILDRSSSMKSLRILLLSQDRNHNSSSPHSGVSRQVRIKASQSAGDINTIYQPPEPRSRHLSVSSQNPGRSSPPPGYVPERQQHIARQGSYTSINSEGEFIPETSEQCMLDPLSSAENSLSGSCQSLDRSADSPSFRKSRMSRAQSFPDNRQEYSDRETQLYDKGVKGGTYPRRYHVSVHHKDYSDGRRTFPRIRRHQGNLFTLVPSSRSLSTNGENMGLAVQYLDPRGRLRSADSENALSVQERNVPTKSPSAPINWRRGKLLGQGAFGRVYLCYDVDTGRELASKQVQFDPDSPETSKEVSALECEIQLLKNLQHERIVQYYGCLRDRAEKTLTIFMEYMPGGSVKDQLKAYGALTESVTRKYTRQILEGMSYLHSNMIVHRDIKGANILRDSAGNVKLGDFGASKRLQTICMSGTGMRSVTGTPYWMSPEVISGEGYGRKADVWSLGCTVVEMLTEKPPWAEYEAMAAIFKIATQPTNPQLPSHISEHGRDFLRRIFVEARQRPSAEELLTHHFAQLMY", "conditions": "read-out: % Enzyme Activity (relative to DMSO controls), MEKK3"}, "[6]": {"molecular_target": "T6, panel of 374 wild-type kinases (Homo sapiens, UniProt Q6XUX3)", "T6 construct": "purchased Reaction Biology Corporation", "T6 sequence (Q6XUX3 1-929)": "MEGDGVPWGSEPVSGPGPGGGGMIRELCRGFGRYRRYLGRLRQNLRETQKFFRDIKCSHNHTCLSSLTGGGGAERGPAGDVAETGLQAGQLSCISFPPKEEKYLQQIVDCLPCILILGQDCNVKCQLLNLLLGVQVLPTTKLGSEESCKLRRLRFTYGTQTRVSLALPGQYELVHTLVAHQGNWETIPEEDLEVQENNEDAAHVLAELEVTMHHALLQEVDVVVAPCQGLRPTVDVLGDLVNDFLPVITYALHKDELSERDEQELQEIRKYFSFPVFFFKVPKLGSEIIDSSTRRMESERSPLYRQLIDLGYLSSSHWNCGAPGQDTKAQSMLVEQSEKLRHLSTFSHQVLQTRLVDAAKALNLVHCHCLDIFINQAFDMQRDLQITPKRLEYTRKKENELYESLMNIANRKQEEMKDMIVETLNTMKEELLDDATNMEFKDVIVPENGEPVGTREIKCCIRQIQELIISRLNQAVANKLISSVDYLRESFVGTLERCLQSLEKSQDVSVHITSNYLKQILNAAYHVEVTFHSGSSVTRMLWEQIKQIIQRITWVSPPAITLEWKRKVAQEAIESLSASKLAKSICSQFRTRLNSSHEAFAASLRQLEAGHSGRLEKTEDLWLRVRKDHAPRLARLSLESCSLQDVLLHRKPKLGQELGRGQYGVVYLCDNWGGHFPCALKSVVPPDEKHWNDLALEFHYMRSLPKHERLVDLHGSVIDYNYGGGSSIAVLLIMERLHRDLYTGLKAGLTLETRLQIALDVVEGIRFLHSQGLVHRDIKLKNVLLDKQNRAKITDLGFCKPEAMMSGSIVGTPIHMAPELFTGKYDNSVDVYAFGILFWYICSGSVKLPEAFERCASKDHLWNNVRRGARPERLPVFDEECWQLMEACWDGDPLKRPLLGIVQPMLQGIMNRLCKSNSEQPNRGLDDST", "conditions": "read-out: % Enzyme Activity (relative to DMSO controls), kinase RIPK5"}, "[7]": {"molecular_target": "T7, panel of 374 wild-type kinases (Homo sapiens, UniProt Q9Y4K4)", "T7 construct": "purchased Reaction Biology Corporation", "T7 sequence (Q9Y4K4 whole entry)": "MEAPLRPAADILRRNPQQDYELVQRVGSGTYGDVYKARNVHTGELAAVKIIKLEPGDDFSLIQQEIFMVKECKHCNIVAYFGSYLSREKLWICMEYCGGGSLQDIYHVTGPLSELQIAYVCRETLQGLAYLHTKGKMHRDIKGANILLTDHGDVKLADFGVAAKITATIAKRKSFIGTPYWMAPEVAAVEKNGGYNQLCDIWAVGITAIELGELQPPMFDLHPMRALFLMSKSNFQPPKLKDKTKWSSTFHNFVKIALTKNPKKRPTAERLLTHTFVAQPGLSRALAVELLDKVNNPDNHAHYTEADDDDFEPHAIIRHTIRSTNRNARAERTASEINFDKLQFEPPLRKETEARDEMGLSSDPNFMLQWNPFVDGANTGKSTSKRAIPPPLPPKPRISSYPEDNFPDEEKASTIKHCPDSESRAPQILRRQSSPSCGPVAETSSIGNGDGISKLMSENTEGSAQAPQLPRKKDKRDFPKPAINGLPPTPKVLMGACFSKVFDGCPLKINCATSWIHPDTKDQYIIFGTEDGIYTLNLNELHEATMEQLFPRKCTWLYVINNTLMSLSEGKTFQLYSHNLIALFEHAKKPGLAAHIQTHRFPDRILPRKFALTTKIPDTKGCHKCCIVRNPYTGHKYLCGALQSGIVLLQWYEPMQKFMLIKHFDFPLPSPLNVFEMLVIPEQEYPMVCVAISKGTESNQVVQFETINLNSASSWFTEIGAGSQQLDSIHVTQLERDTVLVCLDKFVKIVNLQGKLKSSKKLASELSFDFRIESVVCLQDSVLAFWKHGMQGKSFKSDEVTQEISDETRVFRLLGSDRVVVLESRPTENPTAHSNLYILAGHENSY", "conditions": "read-out: % Enzyme Activity (relative to DMSO controls), KHS/MAP4K5"}, "[8]": {"molecular_target": "T8, panel of 374 wild-type kinases (Homo sapiens, UniProt Q13557)", "T8 construct": "purchased Reaction Biology Corporation", "T8 sequence (Q13557 whole entry)": "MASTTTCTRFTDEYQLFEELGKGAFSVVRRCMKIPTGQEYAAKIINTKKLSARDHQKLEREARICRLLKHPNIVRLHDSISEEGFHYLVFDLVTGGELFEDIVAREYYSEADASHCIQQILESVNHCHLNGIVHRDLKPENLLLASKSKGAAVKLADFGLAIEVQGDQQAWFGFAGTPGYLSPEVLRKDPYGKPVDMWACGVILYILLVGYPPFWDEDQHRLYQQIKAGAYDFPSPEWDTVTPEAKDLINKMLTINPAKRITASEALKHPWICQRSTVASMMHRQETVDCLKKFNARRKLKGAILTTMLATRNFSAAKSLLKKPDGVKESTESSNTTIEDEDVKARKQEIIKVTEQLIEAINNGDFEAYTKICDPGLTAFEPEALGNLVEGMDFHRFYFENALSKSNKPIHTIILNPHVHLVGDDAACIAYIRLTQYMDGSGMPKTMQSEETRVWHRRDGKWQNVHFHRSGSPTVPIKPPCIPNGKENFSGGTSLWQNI", "conditions": "read-out: % Enzyme Activity (relative to DMSO controls), CAMK2d"}, "[9]": {"molecular_target": "T9, panel of 374 wild-type kinases (Homo sapiens, UniProt P27361)", "T9 construct": "purchased Reaction Biology Corporation", "T9 sequence (P27361 whole entry)": "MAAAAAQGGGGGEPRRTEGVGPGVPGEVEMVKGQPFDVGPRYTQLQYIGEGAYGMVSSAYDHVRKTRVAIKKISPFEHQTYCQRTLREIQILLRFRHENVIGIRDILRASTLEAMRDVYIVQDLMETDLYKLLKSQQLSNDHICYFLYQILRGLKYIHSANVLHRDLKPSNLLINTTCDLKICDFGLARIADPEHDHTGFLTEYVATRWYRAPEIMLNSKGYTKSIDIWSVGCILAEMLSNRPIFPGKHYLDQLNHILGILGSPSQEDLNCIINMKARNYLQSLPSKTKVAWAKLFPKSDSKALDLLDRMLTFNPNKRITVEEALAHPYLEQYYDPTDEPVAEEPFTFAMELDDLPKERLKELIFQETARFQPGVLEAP", "conditions": "read-out: % Enzyme Activity (relative to DMSO controls), ERK1"}}}
{"smiles": "O=C(Nc1cnn(-c2csc(C(=O)NC3COC3)c2)c1)Nc1ccccc1Cl", "note": "[Compound 17, 4-(4-(3-(2-chlorophenyl)ureido)-1H-pyrazol-1-yl)-N-(oxetan-3-yl)thiophene-2-carboxamide]", "values": [{"measurement": "remaining activity at 5 µM", "setting": "[1]", "value": 57.6, "unit": "%"}, {"measurement": "remaining activity at 5 µM", "setting": "[2]", "value": 95.2, "unit": "%"}, {"measurement": "remaining activity at 5 µM", "setting": "[3]", "value": 93.5, "unit": "%"}, {"measurement": "remaining activity at 5 µM", "setting": "[4]", "value": 103, "unit": "%"}, {"measurement": "remaining activity at 5 µM", "setting": "[5]", "value": 113, "unit": "%"}, {"measurement": "remaining activity at 5 µM", "setting": "[6]", "value": 102, "unit": "%"}, {"measurement": "remaining activity at 5 µM", "setting": "[7]", "value": 99.1, "unit": "%"}, {"measurement": "remaining activity at 5 µM", "setting": "[8]", "value": 103, "unit": "%"}, {"measurement": "remaining activity at 5 µM", "setting": "[9]", "value": 92.8, "unit": "%"}]}
{"smiles": "Cc1sc(C(=O)NC2COC2)cc1-n1cc(NC(=O)Nc2c(F)cccc2Cl)cn1", "note": "[Compound 27, 4-(4-(3-(2-chloro-6-fluorophenyl)ureido)-1H-pyrazol-1-yl)-5-methyl-N-(oxetan-3-yl)thiophene-2-carboxamide]", "values": [{"measurement": "remaining activity at 10 µM", "setting": "[1]; 10 uM", "value": 76.3, "unit": "%"}, {"measurement": "remaining activity at 10 µM", "setting": "[2]; 10 uM", "value": 114, "unit": "%"}, {"measurement": "remaining activity at 10 µM", "setting": "[3]; 10 uM", "value": 90.7, "unit": "%"}, {"measurement": "remaining activity at 10 µM", "setting": "[4]; 10 uM", "value": 104, "unit": "%"}, {"measurement": "remaining activity at 10 µM", "setting": "[5]; 10 uM", "value": 113, "unit": "%"}, {"measurement": "remaining activity at 10 µM", "setting": "[6]; 10 uM", "value": 96.6, "unit": "%"}, {"measurement": "remaining activity at 10 µM", "setting": "[7]; 10 uM", "value": 98.4, "unit": "%"}, {"measurement": "remaining activity at 10 µM", "setting": "[8]; 10 uM", "value": 91.3, "unit": "%"}, {"measurement": "remaining activity at 10 µM", "setting": "[9]; 10 uM", "value": 107, "unit": "%"}]}
{"smiles": "O=C(Nc1cnn(-c2csc(C(=O)NC3COC3)c2)c1)Nc1c(F)cccc1Cl", "note": "[Compound 25, 4-(4-(3-(2-chloro-6-fluorophenyl)ureido)-1H-pyrazol-1-yl)-N-(oxetan-3-yl)thiophene-2-carboxamide]", "values": [{"measurement": "remaining activity at 5 µM", "setting": "[1]", "value": 49.1, "unit": "%"}, {"measurement": "remaining activity at 5 µM", "setting": "[2]", "value": 107, "unit": "%"}, {"measurement": "remaining activity at 5 µM", "setting": "[3]", "value": 84.7, "unit": "%"}, {"measurement": "remaining activity at 5 µM", "setting": "[4]", "value": 97.4, "unit": "%"}, {"measurement": "remaining activity at 5 µM", "setting": "[5]", "value": 81.9, "unit": "%"}, {"measurement": "remaining activity at 5 µM", "setting": "[6]", "value": 95.5, "unit": "%"}, {"measurement": "remaining activity at 5 µM", "setting": "[7]", "value": 103, "unit": "%"}, {"measurement": "remaining activity at 5 µM", "setting": "[8]", "value": 93.5, "unit": "%"}, {"measurement": "remaining activity at 5 µM", "setting": "[9]", "value": 92.4, "unit": "%"}]}
